Values quoted from earlier work in patent US20160317662A1, “STABLE ORAL PHARMACEUTICAL COMPOSITION” (H[…].A., priority 2013, published 2016).

Conditions: aqueous solutions; state of the art

SMILES: COc1ccc2c3c1O[C@H]1[C@@H](O)C=C[C@H]4C(C2)N(C)CC[C@@]341 [codeine, codein phosphate hemihydrate]
- pH around which solutions are relatively stable: ~3.5
